Data on one molecule can be found in publication PMC4649711, “In1-ghrelin splicing variant is overexpressed in pituitary adenomas and increases their aggressive features” (Scientific Reports, 2015).

One experiment has as its system p-ERK1/2. Description: ERK1/2 phosphorylation by western blot in GH-omas. The experiment is classed as cell-based, human. The note with it: 100 nM, 8 minutes, p-ERK1/2/total ERK1/2 vs vehicle (100%), n = 4. Here is the method: (§1) Pituitary adenoma specimens were dispersed into single cells by enzymatic and mechanical disruption and cultured onto tissue culture plates in serum containing medium, as previously described. Briefly, pituitary samples were resected by endoscopic transsphenoidal surgery and transferred to sterile cold (4°C) culture medium (S-MEM, Gibco, Madrid, Spain) supplemented with 0.1% BSA, 0.01% L-glutamine, 1% antibiotic-antimycotic solution, and 2.5% HEPES. Samples were minced under sterile conditions into 1–2 mm^3 pieces. Some pieces were stored at −80°C for posterior RNA isolation and, when possible, the remaining tissue samples were washed and incubated in 30 mL S-MEM medium supplemented 0.3% trypsin (Beckson, Dickinson and Company, Sparks, MD, USA) in a spinner flask (Bellco Glass, Vineland, NJ, USA) for 2 h of gentle shaking at 37°C and then, incubation was continued for another 5 min in presence of 1 mg of DNAse I (Roche, Mannheim, Germany). Dispersed cells were decanted by centrifugation and then, by repeated aspiration into a smoothtipped glass Pasteur pipette. Cells suspensions were washed once in 4.5 g/L glucose containing DMEM medium (Gibco, Madrid, Spain) supplemented with 0.1% BSA, 0.01% L-glutamine, 1% antibiotic-antimycotic solution, and 2.5% HEPES. […]

Experiment [1] concerns GHSR-lacking cells (e.g. prostate cell lines). To be noted: cited from earlier work.
In experiment [2] the test system is ACTH-omas (tumoral pituitary cells). The experiment is described as follows: free cytosolic calcium kinetics ([Ca^2+]i), ACTH-oma cells. The experiment is classed as cell-based, human. Here is the method:
as §1, with “pipette.” for “pipette. Cells suspensions were washed once in 4.5 g/L glucose containing DMEM medium (Gibco, Madrid, Spain) supplemented with 0.1% BSA, 0.01% L-glutamine, 1% antibiotic-antimycotic solution, and 2.5% HEPES.”
As previously reported, changes in [Ca^2+]i in single cells were measured using fura-2AM (50,000 cells/coverslip; Molecular Probes, Eugene, OR)[23][30]. […] Cells were examined for changes in [Ca^2+]i after the appropriate treatment (native ghrelin, In1-19 or In1-40) using a 40× objective with Immersion Oil Type NF (Nikon, Tokyo, Japan) while exposed to alternating 340–380 nm light beams, and the intensity of light emission at 505 nm was measured every 5 seconds using MetaFluor Software (Imaging Corp., West Chester, PA, USA). […] Changes in [Ca^2+]i in CHO-K1 cell line expressing recombinant GHSR1a or GHSR1b receptor were measured using Calcium 4 Explorer Kit (Molecular Devices, Sunnyvale, CA, USA). […] Fluorescent signals were then monitored using the FLIPR Tetra (Molecular Devices, Sunnyvale, CA, USA) during which cells were stimulated with compounds. Dose-response curves were analyzed using GraphPad Prism v5.04 (La Jolla, CA, USA).

The next experiment deals with AtT-20 cell line. The experiment is described as follows: cell viability of AtT-20 cell line. The note with it: alamar-blue, 3–5 independent experiments, IGF-1 and Paclitaxel as controls. In kind it is cell-based, mouse. The protocol: The mouse corticotroph pituitary derived cell line AtT-20/D16v-F2 (ATCC® CRL-1795) was cultured and maintained in Dulbecco's Modified Eagle's Medium (DMEM) complemented with 10% FBS, 100 U/ml penicillin/streptomycin, 0.024 M of 2-(4(2-hydroxyethyl)-1-piperazine)-ethane sulfonic acid (HEPES), and maintained at 37°C and 5% CO2, under sterile conditions. CHO-K1 cell line(ATCC® CCL-61) expressing recombinant human GHSR1a (GenBank accession number U60179) or GHSR1b (GenBank accession number U60181) were cultured and maintained in Ham's F12 media (Corning #10-080-CV) supplemented with 10% FBS, 2 mM L-Glutamine and 0.4 mg/mL Geneticin.
As previously reported, cell viability was estimated using alamar-blue reagent (10,000 cells/well-plate; Biosource International, Camarillo, CA, USA)[30][50][52]. Briefly, cells were serum-starved for 12–16 h before the measurements and treated with serum-free medium containing 10% alamar-blue for 3 h. Reduction of alamar-blue reagent was quantified exciting at 560 nm and reading at 590 nm using the FlexStation III system (Molecular Devices, Sunnyvale, CA, USA). Subsequently, media was replaced by serum-containing alamar-blue free medium and incubated for additional 24–72 h, measuring the alamar-blue reduction every 24 h. […]
In general terms: Alamar Blue is a resazurin reagent that responds to reducing activity.

Experiment [3] concerns other endocrine cell types (e.g. pancreatic cells). Details: method as in PMID 17068144. To be noted: cited from earlier work.
In experiment [4] the test system is rat pituitary somatotrope cell lines. Details: method as in PMID 15296479. To be noted: cited from earlier work.
In another experiment the test system is pituitary adenoma cells. Description: cell viability in all pituitary adenoma subtypes, peptide treatment. The experiment is classed as cell-based, human. The note with it: 100 nM, 24-, 48- and/or 72-h, alamar-blue. The protocol:
as §1, with “pipette.” for “pipette. Cells suspensions were washed once in 4.5 g/L glucose containing DMEM medium (Gibco, Madrid, Spain) supplemented with 0.1% BSA, 0.01% L-glutamine, 1% antibiotic-antimycotic solution, and 2.5% HEPES.”
As previously reported, cell viability was estimated using alamar-blue reagent (10,000 cells/well-plate; Biosource International, Camarillo, CA, USA)[30][50][52]. […] Reduction of alamar-blue reagent was quantified exciting at 560 nm and reading at 590 nm using the FlexStation III system (Molecular Devices, Sunnyvale, CA, USA). […]

Each structure is given as a SMILES string. Values joined by “and” are separate entries in the source; they are usually repeats but may differ in a detail not shown here. Equal entries are not always repeated. “Also recorded” adds a separate entry of the source.

As for `CCCCCCCC(=O)OC[C@H](NC(=O)[C@H](CO)NC(=O)CN)C(=O)N[C@@H](Cc1ccccc1)C(=O)N[C@@H](CC(C)C)C(=O)N[C@@H](CO)C(=O)N1CCC[C@H]1C(=O)N[C@@H](CCC(=O)O)C(=O)N[C@@H](Cc1c[nH]cn1)C(=O)N[C@@H](CCC(N)=O)C(=O)N[C@@H](CCCNC(=N)N)C(=O)N[C@H](C(=O)N[C@@H](CCC(N)=O)C(=O)N[C@@H](CCC(N)=O)C(=O)N[C@@H](CCCNC(=N)N)C(=O)N[C@@H](CCCCN)C(=O)N[C@@H](CCC(=O)O)C(=O)N[C@@H](CO)C(=O)N[C@@H](CCCCN)C(=O)N[C@@H](CCCCN)C(=O)N1CCC[C@H]1C(=O)N1CCC[C@H]1C(=O)N[C@@H](C)C(=O)N[C@@H](CCCCN)C(=O)N[C@@H](CC(C)C)C(=O)N[C@@H](CCC(N)=O)C(=O)N1CCC[C@H]1C(=O)N[C@@H](CCCNC(=N)N)C(=O)O)C(C)C` [AG], the p-ERK1/2 levels result in the experiment with p-ERK1/2 is on record as “clear increase; also recorded: increased both, p-ERK1/2 as well as p-Akt, levels”. Moreover, the “responses in GHSR-lacking cells” value in experiment [1] was “have been found in GHSR-lacking cells”. In addition, in experiment [2] (fura-2AM), the “[Ca^2+]i response (in words)” value was “doubling the [Ca^2+]i levels”. Further, the “% cell resp.” value in experiment [2] (proportion of responsive cells, fura-2AM single-cell imaging) was 74% and 74.1%. Moreover, the “# samples” value in experiment [2] (responsive/tested samples, fura-2AM, 742 / 230 / 143 cells analyzed for AG / In1-19 / In1-40, peptides 100 nM (abstract)) was 9/9. Also, the cell viability result with AtT-20 cell line is “did not alter cell viability”; in the experiment on pituitary adenoma cells, “increased cell viability in vitro in all pituitary adenoma subtypes”. Further, the apoptotic rate entry in experiment [3] was “did not affect the apoptotic rate”. Moreover, the cell proliferation entry in experiment [4] is recorded as “can stimulate cell proliferation”.
